Results from ChEMBL document CHEMBL5226289, “Discovery of natural anti-inflammatory alkaloids: Potential leads for the drug discovery for the treatment of inflammation” (Eur J Med Chem, 2021).

Test system: RAW264.7
Experiment: Antiinflammatory activity against LPS-stimulated mouse RAW264.7 cells assessed as inhibition of TNF-alpha production incubated for 24 hrs by ELISA analysis relative to control
Assay type: functional
Conditions: not given

| SMILES | inhibition (INH) [%] |
| --- | --- |
| O=C1C(O)=CC[C@@H]2[C@H]3CCCN4CCC[C@@H](CN12)[C@@H]34 | >40 |
| O=C1C=CC[C@@H]2[C@H]3CCCN4CCC[C@@H](CN12)[C@@H]34 [SOPHOCARPINE] | >40 |

Test system: HEp-2
Experiment: Cytotoxicity against human HEp-2 cells assessed as inhibition of cell growth incubated for 48 hrs by MTT assay
Assay type: functional, cell-based
Conditions: HEp-2, 48 h, pooled result: one value given for 7 cell lines, strains, targets or settings

| SMILES | IC50 [µM] |
| --- | --- |
| COC1=CC(=O)c2cc3c4c(cc(OC)c(OC)c4c2C1=O)CCN3C | 10.5 |
| COC1=CC(=O)c2cc3c4c(cc(O)c(OC)c4c2C1=O)CCN3C | 8.7 |
| COc1ccc2c(cc3c4c(cc5c(c42)OCO5)CCN3C)c1O | 28.9 |

Test system: RAW264.7
Experiment: Inhibition of NO production in LPS-stimulated mouse RAW264.7 cells preincubated with compound for 1 hrs followed by LPS stimulation and measured after 24 hrs by Griess reagent-based assay
Assay type: functional, cell-based
Conditions: not given

| SMILES | IC50 [µM] |
| --- | --- |
| O=C1CC[C@H]2c3[nH]c4ccc(O)cc4c3CCN12 | 25.2 |
| O=C1NCCc2c1[nH]c1ccc(O)cc21 | 31.9 |

Test system: RAW264.7
Experiment: Antiinflammatory activity against LPS-stimulated mouse RAW264.7 cells assessed as inhibition of IL-6 production incubated for 24 hrs by ELISA analysis relative to control
Assay type: functional
Conditions: not given

| SMILES | inhibition (INH) [%] |
| --- | --- |
| O=C1C(O)=CC[C@@H]2[C@H]3CCCN4CCC[C@@H](CN12)[C@@H]34 | >40 |
| O=C1C=CC[C@@H]2[C@H]3CCCN4CCC[C@@H](CN12)[C@@H]34 [SOPHOCARPINE] | >40 |

Test system: Mus musculus
Experiment: Antiinflammatory activity in carrageenan-induced peritoneal Swiss albino mouse model assessed as decrease in number of leukocyte cells at 100 umol/kg, po pre-treated for 30 mins followed by carrageenan induction and measured after 4 hrs relative to control
Assay type: functional
Set-up: scale not given: the % may be the effect or the level left
Conditions: dose 100 µmol/kg, time 4.5 hrs

| SMILES | Activity [%] |
| --- | --- |
| COc1ccc2c(c1)c(CC(=O)O)c(C)n2C(=O)c1ccc(Cl)cc1 [INDOMETHACIN] | 72.1 |

Test system: RAW264.7
Experiment: Inhibition of NO production in LPS-stimulated mouse RAW264.7 cells incubated for 24 hrs by Griess reagent-based assay
Assay type: functional, cell-based
Conditions: RAW264.7, 24 h

| SMILES | IC50 [µM] |
| --- | --- |
| CC[C@@H](C)[C@@H](C)C(=O)OC/C=C(\C)C(=O)OC[C@@H]1CCN2CCC[C@H]12 | 38.6 |
| O=C1c2ccccc2-c2c3c(cc4ccnc1c24)OCO3 [LIRIODENINE] | 1.39 |
| N=C(N)NN [PIMAGEDINE] | 1.8 |
| C[C@]12CCC(=O)C=C1CC[C@@H]1[C@@H]2[C@@H](O)C[C@@]2(C)[C@H]1CC[C@]2(O)C(=O)CO [HYDROCORTISONE] | 3.4 |
| CN1CCc2cc3c(c4c2[C@H]1Cc1ccccc1-4)OCO3 | 1.39 |
| O=C(OC[C@@H]1CCN2CCC[C@H]12)c1ccccc1 | 25.5 |
| C/C=C(/C)C(=O)O[C@@H]1CC[N+]2([O-])CC=C(COC(=O)[C@](O)(C(C)C)[C@H](C)OC)[C@H]12 (stereo not given in full) | 105 |

Next, values leading:

| IC50 [µM] | SMILES |
| --- | --- |
| 1.3 | Cc1cncc2c1CC1c3[nH]c4ccccc4c3CCN1C2=O (stereo not given) |
| 12 | O=C1C=CC2=NC=CC3c4cc(O)ccc4N1C23 (stereo not given) |
| 1.39 | CO[C@@H]1C=C[C@@]23c4cc5c(cc4C(=O)N(CCc4ccccc4)[C@@H]2C(=O)N(C)[C@H]3C1)OCO5 |
| 12 | O=c1c(CO)ccc2n1CCc1c-2[nH]c2ccccc12 |
| 1.39 | CC[C@H](C)CN1C(=O)c2cc3c(cc2[C@@]24C=C[C@@H](OC)C[C@@H]2N(C)C(=O)[C@@H]14)OCO3 |
| 7.7 | O=C1C=CC2=NC=CC3c4ccc(O)cc4N1C23 (stereo not given) |
| 9.1 | O=C1C=CC2=NC=CC3c4ccccc4N1C23 (stereo not given) |
| 0.8 | Cc1[nH]c(C=O)c2c1C(=O)N1CCC3(C(=O)Nc4ccccc43)C1C2 (stereo not given) |
| 1.6 | C=Cc1cncc2c1CC1c3[nH]c4ccccc4c3CCN1C2=O (stereo not given) |
| 3.6 | C/C=C1\CO[C@H](OC)c2c1cc1n(c2=O)CCc2c-1[nH]c1ccccc21 |
| 15.1 | C[C@@H](O)C1=CC2=NC=CC3c4ccccc4N(C1=O)C23 (stereo not given in full) |
| 2.4 | C/C=C1/CN2CC[C@@H]1C(=O)c1[nH]c3ccc(OC)cc3c1C2 |

Test system: RAW264.7
Experiment: Antiinflammatory activity against mouse RAW264.7 cells assessed as inhibition of cell growth
Assay type: functional, cell-based
Conditions: not given

| SMILES | IC50 [µM] |
| --- | --- |
| Cc1ccc(-c2cc(C(F)(F)F)nn2-c2ccc(S(N)(=O)=O)cc2)cc1 [CELECOXIB] | 34.3 |

Test system: not listed separately
Experiment: Inhibition of NO production in LPS-stimulated mouse BV-2 cells preincubated with compound for 1 hrs followed by LPS stimulation and measured after 24 hrs by Griess reagent-based assay
Assay type: functional, cell-based
Conditions: not given

| SMILES | IC50 [µM] |
| --- | --- |
| CO[C@H]1[C@@H]2C[C@]34CCCCCCCCCCn5ccc2c5C(=O)[C@@H]3[C@H]2[C@H](O)CCCCCCCC[N@@+]21C4 | 2.1 |
| CO[C@H]1[C@@H]2C[C@]34CCCCCCCCCCn5ccc2c5C(=O)[C@@H]3[C@H]2C(O)C/C=C\C/C=C\CCC[N@@+]21C4 (stereo not given in full) | 1.1 |

Other lines, results leading:

| IC50 [µM] | SMILES |
| --- | --- |
| 6.4 | O=Cc1cc2c(cc1O)[nH]c1cc(O)ccc12 [CLAUSINE O] |
| 10.9 | COc1c(CC=C(C)C)c(C=O)cc2c1[nH]c1cc(O)ccc12 |
| 4.6 | COc1ccc2c(c1)[nH]c1cc(OC)c(C(=O)O)cc12 [CLAUSINE K] |
